In ChEMBL document CHEMBL1136243, “Synthetic dihydropacidamycin antibiotics: a modified spectrum of activity for the pacidamycin class” (2003):
Values after ≈ are worked out from the molar mass of the structure shown.

Experiments:
Format in all cases: functional
[1] = tested on: Mycobacterium tuberculosis; assay: Antibacterial activity against Mycobacterium tuberculosis TN913
[2] = tested on: Mycobacterium tuberculosis; assay: Antibacterial activity against Mycobacterium tuberculosis H37Rv
[3] = tested on: Mycobacterium tuberculosis; assay: Antibacterial activity against Mycobacterium tuberculosis TN1618 (P)
[4] = tested on: Mycobacterium tuberculosis; assay: Antibacterial activity against Mycobacterium tuberculosis TN565 (W)
Escherichia coli [5] = assay: Antibacterial activity against Escherichia coli wild-type
Pasteurella multocida = assay: Antibacterial activity against Pasteurella multocida wild-type
Pseudomonas aeruginosa = assay: Antibacterial activity against Pseudomonas aeruginosa wild-type
Acinetobacter baumannii = assay: Antibacterial activity against Acinetobacter baumannii resistant to (ERY) erythromycin;
Citrobacter freundii = assay: Antibacterial activity against Citrobacter freundii resistant to (GEN) gentamicin; (ERY) erythromycin;
Escherichia coli [6] = assay: Antibacterial activity against Escherichia coli resistant to (GEN) gentamicin; (RIF) rifampicin; (SM) streptomycin; (SP) spectinomycin; (SU) sulfonamides; (TET) tetracycline; (Hg)mercury
Klebsiella pneumoniae [7] = assay: Antibacterial activity against Klebsiella pneumoniae
Klebsiella pneumoniae [8] = assay: Antibacterial activity against Klebsiella pneumoniae resistant to (AMP) ampicillin; (GEN) gentamicin; NAL (nalidixic acid); (TET) tetracycline
Salmonella sp. = assay: Antibacterial activity against Salmonella species. resistant to (AMP) ampicillin; (ERY) erythromycin
Enterobacter cloacae = assay: Antibacterial activity against Enterobacter cloacae resistant to (ERY) erythromycin;
Citrobacter koseri = assay: Antibacterial activity against Citrobacter diversus
Escherichia coli [9] = assay: Antibacterial activity against Escherichia coli resistant to (AMP) ampicillin;) KAN) kanamycin; (NM) neomycin; (RIF) rifampicin; (TET) tetracycline; (Hg)mercury
[10] = Escherichia coli, read-out: MIC

`CC(C)C[C@H](N)C(=O)N(C)[C@@H](C)[C@H](NC(=O)[C@H](Cc1ccccc1)NC(=O)N[C@@H](Cc1c[nH]c2ccccc12)C(=O)O)C(=O)NC[C@H]1C[C@@H](O)[C@H](n2ccc(=O)[nH]c2=O)O1` was tested, and the MIC [1] was 30 µg/mL (≈ 36.1 µM), the MIC [2] was 30 µg/mL (≈ 36.1 µM) and the MIC [3] was 10 µg/mL (≈ 12 µM). It also gave an MIC [4] of 30 µg/mL (≈ 36.1 µM).

In the case of `C[C@H](N)C(=O)N(C)[C@@H](C)[C@H](NC(=O)[C@H](Cc1ccccc1)NC(=O)N[C@@H](Cc1ccc2ccccc2c1)C(=O)O)C(=O)NC[C@H]1C[C@@H](O)[C@H](n2ccc(=O)[nH]c2=O)O1`, the MIC [1] was 30 µg/mL (≈ 37.5 µM), the MIC [2] was 30 µg/mL (≈ 37.5 µM) and the MIC [3] was 10 µg/mL (≈ 12.5 µM). It also gave an MIC [4] of 30 µg/mL (≈ 37.5 µM).

`CSCC[C@H](NC(=O)N[C@@H](Cc1ccc(O)cc1)C(=O)O)C(=O)N[C@H](C(=O)NC[C@H]1C[C@@H](O)[C@H](n2ccc(=O)[nH]c2=O)O1)[C@H](C)N(C)C(=O)[C@H](C)N` showed an MIC [1] greater than 30 µg/mL, an MIC [2] greater than 30 µg/mL and an MIC [3] greater than 30 µg/mL. The MIC [4] was greater than 30 µg/mL.

Work on `C[C@H](N)C(=O)N(C)[C@@H](C)[C@H](NC(=O)[C@H](Cc1ccc(F)cc1)NC(=O)N[C@@H](Cc1c[nH]c2ccccc12)C(=O)O)C(=O)NC[C@H]1C[C@@H](O)[C@H](n2ccc(=O)[nH]c2=O)O1` yielded an MIC [1] of 8 µg/mL (≈ 9.9 µM), an MIC [2] of 8 µg/mL (≈ 9.9 µM) and an MIC [3] of 8 µg/mL (≈ 9.9 µM). The MIC [4] was 4 µg/mL (≈ 4.95 µM).

Work on `C[C@H](N)C(=O)N(C)[C@@H](C)[C@H](NC(=O)[C@H](Cc1ccccc1)NC(=O)N[C@@H](Cc1c[nH]c2ccccc12)C(=O)O)C(=O)NC[C@H]1CC(O)[C@H](n2ccc(=O)[nH]c2=O)O1` (some centres undefined) yielded an MIC [1] of 8 µg/mL (≈ 10.1 µM), an MIC [2] of 8 µg/mL (≈ 10.1 µM) and an MIC [3] of 8 µg/mL (≈ 10.1 µM). It also gave an MIC [4] of 4 µg/mL (≈ 5.06 µM).

With `CC(C)C[C@H](NC(=O)N[C@@H](Cc1c[nH]c2ccccc12)C(=O)O)C(=O)N[C@H](C(=O)NC[C@H]1C[C@@H](O)[C@H](n2ccc(=O)[nH]c2=O)O1)[C@H](C)N(C)C(=O)CN` the MIC [1] was greater than 30 µg/mL, the MIC [2] was greater than 30 µg/mL and the MIC [3] was greater than 30 µg/mL. It also gave an MIC [4] greater than 30 µg/mL.

`C[C@@H]([C@H](NC(=O)[C@H](Cc1ccccc1)NC(=O)N[C@@H](Cc1c[nH]c2ccccc12)C(=O)O)C(=O)NC[C@H]1C[C@@H](O)[C@H](n2ccc(=O)[nH]c2=O)O1)N(C)C(=O)CN` showed an MIC (Escherichia coli [5]; [10]) of 256 µg/mL (≈ 330 µM), an MIC (Pasteurella multocida) of 64 µg/mL (≈ 82.5 µM) and an MIC (Pseudomonas aeruginosa) of 8 µg/mL (≈ 10.3 µM).

`C[C@H](N)C(=O)N(C)[C@@H](C)[C@H](NC(=O)[C@H](Cc1ccc(F)cc1)NC(=O)N[C@@H](Cc1ccc(O)cc1)C(=O)O)C(=O)NC[C@H]1C[C@@H](O)[C@H](n2ccc(=O)[nH]c2=O)O1` gave an MIC (Acinetobacter baumannii) of no less than 64 µg/mL, an MIC (Citrobacter freundii) of 1 µg/mL (≈ 1.27 µM) and an MIC (Escherichia coli [6]) of 8 µg/mL (≈ 10.2 µM). It also gave an MIC (Escherichia coli [5]) of 4 µg/mL (≈ 5.1 µM), an MIC (Escherichia coli [5]; [10]) of 4 µg/mL (≈ 5.1 µM) and an MIC (Klebsiella pneumoniae [7]) of 32 µg/mL (≈ 40.8 µM). The MIC (Klebsiella pneumoniae [8]) was no less than 64 µg/mL, the MIC [1] was 8 µg/mL (≈ 10.2 µM) and the MIC [2] was 10 µg/mL (≈ 12.7 µM). The MIC [3] was 10 µg/mL (≈ 12.7 µM), the MIC [4] was 8 µg/mL (≈ 10.2 µM) and the MIC (Pasteurella multocida) was 512 µg/mL (≈ 652 µM). The MIC (Pseudomonas aeruginosa) was 64 µg/mL (≈ 81.5 µM), the MIC (Salmonella sp.) was 8 µg/mL (≈ 10.2 µM) and the MIC (Enterobacter cloacae) was no less than 64 µg/mL. It also gave an MIC (Citrobacter koseri) of 16 µg/mL (≈ 20.4 µM) and an MIC (Escherichia coli [9]) of 8 µg/mL (≈ 10.2 µM).

`C[C@H](N)C(=O)N(C)[C@@H](C)[C@H](NC(=O)[C@H](Cc1ccc(-c2ccccc2)cc1)NC(=O)N[C@@H](Cc1c[nH]c2ccccc12)C(=O)O)C(=O)NC[C@H]1C[C@@H](O)[C@H](n2ccc(=O)[nH]c2=O)O1` showed an MIC [1] of 4 µg/mL (≈ 4.62 µM), an MIC [2] of 8 µg/mL (≈ 9.24 µM) and an MIC [3] of 10 µg/mL (≈ 11.5 µM). It also gave an MIC [4] of 4 µg/mL (≈ 4.62 µM).

`C[C@H](N)C(=O)N(C)[C@@H](C)[C@H](NC(=O)[C@H](Cc1ccc(C(F)(F)F)cc1)NC(=O)N[C@@H](Cc1c[nH]c2ccccc12)C(=O)O)C(=O)NC[C@H]1C[C@@H](O)[C@H](n2ccc(=O)[nH]c2=O)O1` was tested, and the MIC [1] was 4 µg/mL (≈ 4.66 µM), the MIC [2] was 8 µg/mL (≈ 9.33 µM) and the MIC [3] was 8 µg/mL (≈ 9.33 µM). It also gave an MIC [4] of 4 µg/mL (≈ 4.66 µM).

`C[C@H](NC(=O)N[C@@H](Cc1c[nH]c2ccccc12)C(=O)O)C(=O)N[C@H](C(=O)NC[C@H]1C[C@@H](O)[C@H](n2ccc(=O)[nH]c2=O)O1)[C@H](C)N(C)C(=O)[C@@H](N)Cc1ccc(O)cc1` [PACIDAMYCIN] showed an MIC (Escherichia coli [5]; [10]) of 256 µg/mL (≈ 318 µM), an MIC [1] greater than 30 µg/mL and an MIC [2] greater than 30 µg/mL. It also gave an MIC [3] greater than 30 µg/mL, an MIC [4] greater than 30 µg/mL and an MIC (Pasteurella multocida) of 128 µg/mL (≈ 159 µM). For the same compound, the MIC (Pseudomonas aeruginosa) was 16 µg/mL (≈ 19.9 µM).
